Source: patent US20240247224A1, “SYSTEM AND METHOD FOR RAPID SUSCEPTIBILITY TESTING” (priority 2023, published 2024)
Values after ≈ are worked out from the molar mass of the structure shown. Like-named read-outs stand apart in the source and are kept apart here.

What was measured:
NG 49226 (QC strain) [1] = assay: Optical scatter phenotypic AST on the instrument, NG 49226; assay type: cell-based, Neisseria gonorrhoeae; details: read-out: Our MIC based on the curves
Excerpt: (§1) In one embodiment, the application of the system disclosed herein is to conduct phenotypic antimicrobial susceptibility testing on Neisseria gonorrhoeae (NG). NG is a fastidious organism and a difficult organism to culture in liquid nutrient broth. The instant invention uses a proprietary media designed for the broth culture of NG. Using specific antibiotics, each at multiple concentrations in each well within the cassette and allowing bacteria to culture in the presence of antibiotic, one can determine the phenotypic AST results. Data generated and illustrated in the figures was generated from samples ranging from single wells or a plurality of wells within one or more cassettes.
(§2) In one embodiment, the application of the system is to conduct phenotypic antimicrobial susceptibility testing on NG. […]
(§3) The workflow involves use of a sample preparation kit (if and as needed) to process the sample to be tested (based on the sample type). […] The cassette is then loaded into one of the open bays/readers within the instrument. The reader also has an RFID scanner to record the cassette location i.e., the bay/reader it is inserted into within the instrument. The cassette is then autonomously incubated within the instrument, during which all wells within the cassette are read independently by the reader at regular specified time intervals, until the test is complete. […]

AR Isolate AR 0817 = assay: Optical scatter phenotypic AST on the instrument, AR Isolate AR 0817; assay type: cell-based; details: Neisseria gonorrhoeae, FIG. 27, read-out: Our MIC from the instrument
Excerpt: as §1, §2, §3

[2] = system: NG AR 0165 (Neisseria gonorrhoeae antibiotic resistant isolate 0165); assay: Optical scatter phenotypic AST on the instrument, NG AR 0165; assay type: cell-based; details: normalized reading, 650 nm, FIG. 22, read-out: Our MIC based on the curves
Excerpt: as §1, §2, §3

E coli 25922 (QC strain) [3] = assay: Optical scatter phenotypic AST on the instrument, E coli 25922; assay type: cell-based; details: normalized reading, 650 nm, FIG. 25, read-out: Our MIC based on the curves
Excerpt: (§4) In one embodiment, the application of the system is to conduct phenotypic antimicrobial susceptibility testing on gram positive and gram negative organisms from isolates or directly from a positive blood sample. In this embodiment, our method deploys a series of tightly controlled environmental factors, such as temperature, humidity, CO2, along with the use of Mueller-Hinton-II defined media allowing for the testing of these organisms as specified by CLSI. Using specific antibiotics, at various ranges, antibiotic classes, concentrations across the wells of the cassette and allowing bacteria to culture in the presence of antibiotic, one can determine the phenotypic AST results.
(§5) The workflow involves use of a sample preparation kit (if and as needed) to process the sample to be tested (based on the sample type). […] The cassette is then loaded into one of the open bays/readers within the instrument. The reader also has an RFID scanner to record the cassette location i.e., the bay/reader it is inserted into within the instrument. The cassette is then autonomously incubated within the instrument, during which all wells within the cassette are read independently by the reader at regular specified time intervals, until the test is complete. […] Based on the statistical analysis, if the signal change was determined as significant for a given well that well is considered to have detected the analyte. […]

[4] = system: NG AR 0165 (Neisseria gonorrhoeae antibiotic resistant isolate 0165); details: FIG. 22; cited from earlier work
NG 49226 (QC strain) [5] = details: FIG. 24; cited from earlier work
E coli 25922 (QC strain) [6] = details: FIG. 25; cited from earlier work
K pneumoniae 700603 = assay: Optical scatter phenotypic AST on the instrument, K pneumoniae 700603; assay type: cell-based; details: K pneumoniae 700603 in CAMHB with blood (to mimic a positive blood culture vial); FIG. 30; read-out: Our MIC based on the curves
Excerpt: as §4, §5

[7] = system: Staphylococcus aureus in diluted positive blood culture sample; assay: Direct-from-positive blood culture AST on the instrument, Staphylococcus aureus; assay type: cell-based; details: diluted positive blood culture sample from the clinical lab, FIG. 34, read-out: Our MIC based on the curves
Excerpt: (§6) In one embodiment, the application of the system is to conduct phenotypic antimicrobial susceptibility testing on gram positive and gram-negative organisms from a positive blood sample without plating for an isolate. In this embodiment, the positive blood sample is adjusted to the desired microbial concentration. In this embodiment our method deploys a series of tightly controlled environmental factors, such as temperature, humidity, CO2, along with the use of Mueller-Hinton-II defined media allowing for the testing of these organisms as specified by CLSI. […]
as §3, with “complete. The test completion is determined either by the prespecified time period for the cassette to be run, or until the software algorithm running the data analysis in real-time determines the necessary change to the call to complete the test.” for “complete.”

[8] = system: Staphylococcus aureus in diluted positive blood culture sample; assay: In-house broth microdilution test (expected MIC), Staphylococcus aureus; assay type: cell-based; details: clinical positive blood culture sample, FIG. 34, read-out: expected MIC value (based on in-house broth microdilution test)
Procedure: (§7) BMD refers to liquid suspension of an isolated culture in the presence of varying types and concentrations of antibiotics. The liquid cultures are incubated for a period of time at which the turbidity or cloudiness of the suspension is measured either visually, optically or using other detection means. The turbidity is caused by bacteria multiplying and/or a “growing” culture (resistant), whereas a susceptible culture or isolate would appear as clear or lacking turbidity. Use of a reading device permits this process to be semi-automated.

[9] = system: NG AR 0179 (Neisseria gonorrhoeae antibiotic resistant isolate 0179); assay: Optical scatter phenotypic AST on the instrument, NG AR 0179; assay type: cell-based; details: normalized reading, 650 nm, FIG. 23, read-out: Our MIC based on the curves
Excerpt: as §1, §2, §3

[10] = system: S aureus 29213 (QC strain); assay: Optical scatter phenotypic AST on the instrument, S aureus 29213; assay type: cell-based; details: S aureus 29213 (QC strain) in cation adjusted Mueller Hinton Broth (CAMHB); FIG. 28; read-out: Our MIC based on the curves
Excerpt: as §4, §5

[11] = system: E faecalis 29212 (QC strain); assay: Optical scatter phenotypic AST on the instrument, E faecalis 29212; assay type: cell-based; details: E faecalis 29212 (QC strain) in CAMHB with blood (to mimic a positive blood culture vial); FIG. 29; read-out: Our MIC based on the curves
Excerpt: as §4, §5

[12] = system: E faecalis 29212 (QC strain); details: FIG. 29; cited from earlier work
[13] = system: Serratia marcescens in diluted positive blood culture sample; assay: Direct-from-positive blood culture AST on the instrument, Serratia marcescens; assay type: cell-based; details: diluted positive blood culture sample from the clinical lab, FIG. 33, read-out: Our MIC based on the curves
Excerpt: as §6
as §3, with “complete. The test completion is determined either by the prespecified time period for the cassette to be run, or until the software algorithm running the data analysis in real-time determines the necessary change to the call to complete the test.” for “complete.”

[14] = system: Serratia marcescens in diluted positive blood culture sample; assay: In-house broth microdilution test (expected MIC), Serratia marcescens; assay type: cell-based; details: clinical positive blood culture sample, FIG. 33, read-out: expected MIC value (based on in-house broth microdilution test)
Procedure: as §7

C=CC1=C(C(=O)O)N2C(=O)[C@@H](NC(=O)/C(=N\OCC(=O)O)c3csc(N)n3)[C@H]2SC1 [Cefixime]
MIC (NG 49226 (QC strain) [1]; Neisseria gonorrhoeae 49226 (QC strain), 5-well cassette system, FIG. 26): 0.008 µg/mL (≈ 0.0176 µM)
MIC (AR Isolate AR 0817): 0.125 µg/mL (≈ 0.276 µM)

O=C(O)c1cn(C2CC2)c2cc(N3CCNCC3)c(F)cc2c1=O [Ciprofloxacin]
MIC [2]: 4 µg/mL (≈ 12.1 µM)
MIC (NG 49226 (QC strain) [1]; Neisseria gonorrhoeae, NG 49226 (QC strain), normalized reading, 650 nm, FIG. 24): 0.002 µg/mL (≈ 0.00604 µM)
MIC (E coli 25922 (QC strain) [3]): 0.008 µg/mL (≈ 0.0241 µM)
expected MIC value (per CDC agar dilution testing) [4]: 8 µg/mL
expected MIC value range (per CDC agar dilution testing) (NG 49226 (QC strain) [5]): 0.001 to 0.008 µg/mL
expected MIC value range (BMD method) (E coli 25922 (QC strain) [6]): 0.004 to 0.016 µg/mL

C[C@@H](O)[C@H]1C(=O)N2C(C(=O)O)=C(SCCN=CN)C[C@H]12 [Imipenem]
MIC (K pneumoniae 700603): 0.5 µg/mL (≈ 1.67 µM)

Cc1onc(-c2ccccc2)c1C(=O)N[C@@H]1C(=O)N2[C@@H]1SC(C)(C)[C@@H]2C(=O)O [Oxacillin]
MIC [7]: > 2 µg/mL
MIC [8]: > 2 µg/mL

CN(C)[C@@H]1C(O)=C(C(N)=O)C(=O)[C@@]2(O)C(O)=C3C(=O)c4c(O)cccc4[C@@](C)(O)[C@H]3C[C@@H]12 [Tetracycline]
MIC [9]: 2 µg/mL (≈ 4.5 µM)
MIC [10]: 0.008 µg/mL (≈ 0.018 µM)

CN[C@H](CC(C)C)C(=O)N[C@H]1C(=O)N[C@@H](CC(N)=O)C(=O)N[C@H]2C(=O)N[C@H]3C(=O)N[C@H](C(=O)N[C@H](C(=O)O)c4cc(O)cc(O)c4-c4cc3ccc4O)[C@H](O)c3ccc(c(Cl)c3)Oc3cc2cc(c3O[C@@H]2O[C@H](CO)[C@@H](O)[C@H](O)[C@H]2O[C@H]2C[C@](C)(N)[C@H](O)[C@H](C)O2)Oc2ccc(cc2Cl)[C@H]1O [Vancomycin]
MIC [11]: 4 µg/mL (≈ 2.76 µM)
expected MIC value [12]: 1 to 4 µg/mL

CC1(C)S[C@@H]2[C@H](NC(=O)[C@H](N)c3ccccc3)C(=O)N2[C@H]1C(=O)O [ampicillin]
MIC [13]: 16 µg/mL (≈ 45.8 µM)
MIC [14]: > 16 µg/mL
